Source: PubChem BioAssay AID330 (DTP/NCI, 2004)
Where “and” joins values, the source holds several entries; their conditions need not be identical. Equal entries are not always repeated. Toxic doses and inconclusive results are not listed.

Test system: P388 leukemia ip, CD2F1 mice, survival T/C
Experiment: NCI In Vivo Anticancer Drug Screen. Data for tumor model P388 Leukemia (intraperitoneal) in CD2F1 (CDF1) mice
Details: endpoint: median survival time, higher = longer survival
Summary of the method: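 Mice carrying the transplanted tumor received test compound or vehicle. Survival was recorded in each group, and the value is the treated-group measurement divided by that of the vehicle-treated control group.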

[1] = dose: 60.0 mg/kg/injection, schedule: Q01DX005 (ip), vehicle: saline with Tween-80
[2] = dose: 120.0 mg/kg/injection, schedule: Q01DX005 (ip), vehicle: saline with Tween-80
[3] = dose: 240.0 mg/kg/injection, schedule: Q01DX005 (ip), vehicle: saline with Tween-80
[4] = dose: 50.0 mg/kg/injection, schedule: Q01DX009 (ip), vehicle: saline with Tween-80
[5] = dose: 100.0 mg/kg/injection, schedule: Q01DX009 (ip), vehicle: saline with Tween-80
[6] = dose: 200.0 mg/kg/injection, schedule: Q01DX009 (ip), vehicle: saline with Tween-80
[7] = dose: 50.0 mg/kg/injection, schedule: Q01DX009 (ip), vehicle: saline
[8] = dose: 100.0 mg/kg/injection, schedule: Q01DX009 (ip), vehicle: saline
[9] = dose: 200.0 mg/kg/injection, schedule: Q01DX009 (ip), vehicle: saline
[10] = dose: 25.0 mg/kg/injection, schedule: Q01DX009 (ip), vehicle: saline with Tween-80
[11] = dose: 50.0 mg/kg/injection, schedule: Q01DX005 (ip), vehicle: Klucel (hydroxypropylcellulose) (HPC)
[12] = dose: 100.0 mg/kg/injection, schedule: Q01DX005 (ip), vehicle: Klucel (hydroxypropylcellulose) (HPC)
[13] = dose: 200.0 mg/kg/injection, schedule: Q01DX005 (ip), vehicle: Klucel (hydroxypropylcellulose) (HPC)
[14] = dose: 50.0 mg/kg/injection, schedule: Q01DX005 (ip), vehicle: saline with Tween-80
[15] = dose: 100.0 mg/kg/injection, schedule: Q01DX005 (ip), vehicle: saline with Tween-80
[16] = dose: 25.0 mg/kg/injection, schedule: Q01DX005 (ip), vehicle: Klucel (hydroxypropylcellulose) (HPC)
[17] = dose: 50.0 mg/kg/injection, schedule: Q01DX009 (ip), vehicle: Klucel (hydroxypropylcellulose) (HPC)
[18] = dose: 100.0 mg/kg/injection, schedule: Q01DX009 (ip), vehicle: Klucel (hydroxypropylcellulose) (HPC)
[19] = dose: 200.0 mg/kg/injection, schedule: Q01DX009 (ip), vehicle: Klucel (hydroxypropylcellulose) (HPC)
[20] = dose: 100.0 mg/kg/injection, schedule: Q04DX003 (ip), vehicle: saline with Tween-80
[21] = dose: 200.0 mg/kg/injection, schedule: Q04DX003 (ip), vehicle: saline with Tween-80

COc1ccc(S(=O)(=O)c2coc3ccccc3c2=O)cc1
T/C [1]: 110 % of control
T/C [2]: 103 % of control
T/C [3]: 96 % of control

CCCC(=O)Nc1ccccc1
T/C [4]: 100 % of control
T/C [5]: 100 % of control
T/C [6]: 93 % of control

O=C1OC2CSCC2O1 (centres undefined)
T/C [7]: 96 % of control
T/C [8]: 104 % of control
T/C [9]: 101 % of control

CCCCOCN(COCCCC)C(C)Cc1ccccc1 (centres undefined)
T/C [10]: 120 % of control

COC(=O)C1=C(C(=O)OC)C(C)(C)N=N1
T/C (dose: 5.3 mg/kg/injection, schedule: Q01DX009 (ip), vehicle: other): 111 % of control
T/C (dose: 8.0 mg/kg/injection, schedule: Q01DX009 (ip), vehicle: other): 117 % of control
T/C (dose: 12.0 mg/kg/injection, schedule: Q01DX009 (ip), vehicle: other): 114 % of control
T/C (dose: 18.0 mg/kg/injection, schedule: Q01DX009 (ip), vehicle: other): 112 % of control
T/C (dose: 25.0 mg/kg/injection, schedule: Q01DX009 (ip), vehicle: other): 99 % of control

CCSC(=N)N=Nc1ccc(O)cc1
T/C [10]: 100 % of control
T/C [4]: 99 % of control
T/C [5]: 99 % of control
T/C [6]: 93 % of control

CC(C)(C)COC(=O)NC1CCC2CCCCC2C1 (centres undefined)
T/C [7]: 88 % of control
T/C [8]: 97 % of control
T/C [9]: 101 % of control

COCOCCC1C=CCC2C(=O)C=C(OC)C(O)C12C (centres undefined)
T/C [11]: 108 % of control
T/C [12]: 97 % of control
T/C [13]: 101 % of control

O=C(Nc1cc2c3ccccc3ccc2c2ccccc12)C(Cl)Cl
T/C [1]: 100 % of control
T/C [2]: 100 % of control
T/C [3]: 102 % of control

COc1cc([C@H]2c3cc4c(cc3C[C@H]3COC(=O)[C@@H]32)OCO4)cc(OC)c1OC
T/C (dose: 12.5 mg/kg/injection, schedule: Q04DX002 (ip), vehicle: saline with Tween-80): 92 % of control
T/C (dose: 25.0 mg/kg/injection, schedule: Q04DX002 (ip), vehicle: saline with Tween-80): 86 % of control
T/C (dose: 50.0 mg/kg/injection, schedule: Q04DX002 (ip), vehicle: saline with Tween-80): 89 % of control

CC1CN(Cc2ccccc2O)CC(C)N1 (centres undefined)
T/C (dose: 6.25 mg/kg/injection, schedule: Q01DX009 (ip), vehicle: water): 90 % of control
T/C (dose: 12.5 mg/kg/injection, schedule: Q01DX009 (ip), vehicle: water): 93 % of control
T/C (dose: 25.0 mg/kg/injection, schedule: Q01DX009 (ip), vehicle: water): 106 % of control
T/C (dose: 50.0 mg/kg/injection, schedule: Q01DX009 (ip), vehicle: water): 91 % of control
T/C (dose: 100.0 mg/kg/injection, schedule: Q01DX009 (ip), vehicle: water): 94 % of control

CSC(=S)n1nc(-c2ccccc2)c(N=Nc2ccc(C)cc2)c1-c1ccccc1
T/C [14]: 98 % of control
T/C [15]: 91 % of control
T/C (dose: 200.0 mg/kg/injection, schedule: Q01DX005 (ip), vehicle: saline with Tween-80): 93 % of control

C=C(C)C1CC=C(C)/C(=N/NC(=O)c2cccnc2)C1 (centres undefined)
T/C [11]: 116 % of control
T/C [12]: 101 % of control
T/C [13]: 109 % of control

COc1ccc2c(c1OC)C[C@@H]1c3c(cc4c(c3-2)OCO4)CCN1C
T/C (dose: 6.25 mg/kg/injection, schedule: Q01DX005 (ip), vehicle: Klucel (hydroxypropylcellulose) (HPC)): 117 % of control
T/C (dose: 12.5 mg/kg/injection, schedule: Q01DX005 (ip), vehicle: Klucel (hydroxypropylcellulose) (HPC)): 105 % of control
T/C [16]: 96 % of control
T/C [11]: 92 % of control

N#CC1=C(N)Oc2c(c(-c3ccccc3)nn2-c2ccccc2)C1c1ccccc1 (centres undefined)
T/C [17]: 100 % of control
T/C [18]: 105 % of control
T/C [19]: 100 % of control

O=c1[nH]cnc2c1cnn2CN1CCOCC1
T/C [16]: 106 % of control
T/C [11]: 117 % of control and 90 % of control
T/C [12]: 120 % of control

COc1ccc(C)cc1NC(=O)ON=C1CCCCC1
T/C [1]: 95 % of control
T/C [2]: 94 % of control
T/C [3]: 100 % of control

ClC(Cl)(Cl)C1OCCO1
T/C [4]: 95 % of control
T/C [5]: 104 % of control
T/C [20]: 100 % of control
T/C [6]: 90 % of control
T/C [21]: 90 % of control
T/C (dose: 400.0 mg/kg/injection, schedule: Q04DX003 (ip), vehicle: saline with Tween-80): 95 % of control

CC(C)(C)SSCCN
T/C [14]: 103 % of control
T/C [15]: 109 % of control

O=C(O)C1CCC(=O)N1Cc1c[nH]c2ccccc12 (centres undefined)
T/C [1]: 98 % of control
T/C [2]: 94 % of control
T/C [3]: 97 % of control

CCOC(=O)C(Cc1ccc(N(CCCl)CCCl)cc1)NC(=O)C(Cc1ccccc1)NC=O (centres undefined)
T/C [10]: 172 % of control
T/C [4]: 86 % of control
T/C [20]: 166 % of control
T/C [21]: 220 % of control

c1ccc2c3c([nH]c2c1)CCCCC3
T/C [10]: 96 % of control
T/C [4]: 109 % of control
T/C [5]: 106 % of control
T/C [6]: 118 % of control

COC(=O)c1ccc(=O)c2nc3/c(=C/O)c(O)cc(=O)c3[nH]c12
T/C (dose: 0.15 mg/kg/injection, schedule: Q04DX003 (ip), vehicle: saline): 95 % of control
T/C (dose: 0.3 mg/kg/injection, schedule: Q01DX009 (ip), vehicle: saline with Tween-80): 90 % of control
T/C (dose: 0.3 mg/kg/injection, schedule: Q04DX003 (ip), vehicle: saline): 100 % of control
T/C (dose: 0.6 mg/kg/injection, schedule: Q04DX003 (ip), vehicle: saline): 109 % of control

COc1ccccc1N=N/C(=N\Nc1ccccc1OC)C(=O)Nc1ccccc1
T/C (dose: 6.25 mg/kg/injection, schedule: Q01DX009 (ip), vehicle: saline): 89 % of control
T/C (dose: 12.5 mg/kg/injection, schedule: Q01DX009 (ip), vehicle: saline): 91 % of control
T/C (dose: 25.0 mg/kg/injection, schedule: Q01DX009 (ip), vehicle: saline): 90 % of control
T/C [8]: 93 % of control

Cc1ccc(N2C(=O)CC3(CCCCC3)C2=O)c(C)c1
T/C [17]: 105 % of control
T/C [18]: 109 % of control
T/C [19]: 103 % of control

CC(C)NCC(O)c1ccc(O)c(NC=O)c1 (centres undefined)
T/C [4]: 102 % of control
T/C [5]: 104 % of control
T/C [6]: 100 % of control

CCN1C(=O)NC(=O)C(C)(N2CCCCC2)C1=O (centres undefined)
T/C [11]: 108 % of control
T/C [12]: 103 % of control
T/C [13]: 100 % of control

CCOC(=O)N1CCc2cc(OC)c(OC)cc2/C1=C/c1cc(Br)sc1Br
T/C (dose: 100.0 mg/kg/injection, schedule: Q04DX002 (ip), vehicle: Klucel (hydroxypropylcellulose) (HPC)): 102 % of control
T/C (dose: 200.0 mg/kg/injection, schedule: Q04DX002 (ip), vehicle: Klucel (hydroxypropylcellulose) (HPC)): 103 % of control
T/C (dose: 400.0 mg/kg/injection, schedule: Q04DX002 (ip), vehicle: Klucel (hydroxypropylcellulose) (HPC)): 105 % of control

CC(=O)OCC12C3CC(=O)OC1C(OC(=O)C=C(C)C)C1C(C)=CC(=O)C(OC(C)=O)C1(C)C2C(=O)C(OC(C)=O)C3C (centres undefined)
T/C (dose: 0.5 mg/kg/injection, schedule: Q01DX009 (ip), vehicle: distilled water + Tween-80): 100 % of control
T/C (dose: 1.0 mg/kg/injection, schedule: Q01DX009 (ip), vehicle: distilled water + Tween-80): 97 % of control
T/C (dose: 2.0 mg/kg/injection, schedule: Q01DX009 (ip), vehicle: distilled water + Tween-80): 102 % of control
T/C (dose: 4.0 mg/kg/injection, schedule: Q01DX009 (ip), vehicle: distilled water + Tween-80): 101 % of control
T/C (dose: 8.0 mg/kg/injection, schedule: Q01DX009 (ip), vehicle: distilled water + Tween-80): 102 % of control

CC(=O)/C=C1/NC(C(=O)c2ccccc2)=CNC1c1ccccc1 (centres undefined)
T/C [1]: 102 % of control
T/C [2]: 91 % of control
T/C [3]: 95 % of control

COc1ccc(C(Cc2ccccc2)C2(O)C(=O)NC(=O)NC2=O)cc1 (centres undefined)
T/C [1]: 103 % of control
T/C [2]: 99 % of control
T/C [3]: 98 % of control

CCCCCCCCCCCCCC(=O)OCCN1CCN(CCCN2c3ccccc3Sc3ccc(C(F)(F)F)cc32)CC1
T/C (dose: 3.12 mg/kg/injection, schedule: Q01DX009 (ip), vehicle: saline with Tween-80): 106 % of control
T/C (dose: 6.25 mg/kg/injection, schedule: Q01DX009 (ip), vehicle: saline with Tween-80): 102 % of control
T/C (dose: 12.5 mg/kg/injection, schedule: Q01DX009 (ip), vehicle: saline with Tween-80): 112 % of control and 113 % of control
T/C [10]: 116 % of control
